Laboratory results reported in PubChem BioAssay AID1982 (Sanford-Burnham Center for Chemical Genomics, 2009).
The source made the active and inactive calls. How the calls were made is not given here.

How the values were obtained:
Experiment in all cases: kinase panel binding selectivity, selectivity assay, biochemical, KINOMEscan (AID 1982)
[1] = biological target: Serine/threonine-protein kinase PAK 6 (Homo sapiens) (UniProt Q9NQU5); conditions: KINOMEscan 353-kinase binding panel, qPCR; PAK6; at 10 µM; hits give low values
[2] = biological target: Epidermal growth factor receptor (Homo sapiens) (UniProt P00533); conditions: KINOMEscan 353-kinase binding panel, qPCR, at 10 µM, hits give low values
[3] = biological target: Proto-oncogene tyrosine-protein kinase ROS (Homo sapiens) (UniProt P08922); conditions: KINOMEscan 353-kinase binding panel, qPCR; ROS1; at 10 µM; hits give low values
[4] = biological target: Serine/threonine-protein kinase DCLK1 (Homo sapiens) (UniProt O15075); conditions: KINOMEscan 353-kinase binding panel, qPCR; DCAMKL1; at 10 µM; hits give low values
LATS1 = conditions: KINOMEscan 353-kinase binding panel, qPCR, at 10 µM, hits give low values
[5] = biological target: Tyrosine-protein kinase ITK/TSK (Homo sapiens) (UniProt Q08881); conditions: KINOMEscan 353-kinase binding panel, qPCR, at 10 µM, hits give low values
[6] = biological target: Tyrosine-protein kinase JAK2 (Homo sapiens) (UniProt O60674); conditions: KINOMEscan 353-kinase binding panel, qPCR; JAK2(Kin.Dom.2); at 10 µM; hits give low values
DCAMKL2 = conditions: KINOMEscan 353-kinase binding panel, qPCR, at 10 µM, hits give low values
[7] = biological target: ALK tyrosine kinase receptor (Homo sapiens) (UniProt Q9UM73); conditions: KINOMEscan 353-kinase binding panel, qPCR, at 10 µM, hits give low values
RPS6KA1(Kin.Dom.2) = conditions: KINOMEscan 353-kinase binding panel, qPCR, at 10 µM, hits give low values
NEK7 = conditions: KINOMEscan 353-kinase binding panel, qPCR, at 10 µM, hits give low values
[8] = biological target: Serine/threonine-protein kinase B-raf (Homo sapiens) (UniProt P15056); conditions: KINOMEscan 353-kinase binding panel, qPCR, at 10 µM, hits give low values
[9] = biological target: Platelet-derived growth factor receptor alpha (Homo sapiens) (UniProt P16234); conditions: KINOMEscan 353-kinase binding panel, qPCR; PDGFRA; at 10 µM; hits give low values
[10] = biological target: cGMP-dependent protein kinase 2 (Homo sapiens) (UniProt Q13237); conditions: KINOMEscan 353-kinase binding panel, qPCR; PRKG2; at 10 µM; hits give low values
MST3 = conditions: KINOMEscan 353-kinase binding panel, qPCR, at 10 µM, hits give low values
[11] = biological target: 5'-AMP-activated protein kinase catalytic subunit alpha-1 (Homo sapiens) (UniProt Q13131); conditions: KINOMEscan 353-kinase binding panel, qPCR; AMPK-alpha1; at 10 µM; hits give low values
[12] = biological target: Serine/threonine-protein kinase D2 (Homo sapiens) (UniProt Q9BZL6); conditions: KINOMEscan 353-kinase binding panel, qPCR; PRKD2; at 10 µM; hits give low values
TGFBR2 = conditions: KINOMEscan 353-kinase binding panel, qPCR, at 10 µM, hits give low values
RPS6KA2(Kin.Dom.1) = conditions: KINOMEscan 353-kinase binding panel, qPCR, at 10 µM, hits give low values
[13] = biological target: Mitogen-activated protein kinase 1 (Homo sapiens) (UniProt P28482); conditions: KINOMEscan 353-kinase binding panel, qPCR; ERK2; at 10 µM; hits give low values
ULK3 = conditions: KINOMEscan 353-kinase binding panel, qPCR, at 10 µM, hits give low values
PFTAIRE2 = conditions: KINOMEscan 353-kinase binding panel, qPCR, at 10 µM, hits give low values
MLK1 = conditions: KINOMEscan 353-kinase binding panel, qPCR, at 10 µM, hits give low values
[14] = biological target: Cyclin-dependent kinase 5 (Homo sapiens) (UniProt Q00535); conditions: KINOMEscan 353-kinase binding panel, qPCR; CDK5; at 10 µM; hits give low values
ERK4 = conditions: KINOMEscan 353-kinase binding panel, qPCR, at 10 µM, hits give low values
[15] = biological target: RAC-alpha serine/threonine-protein kinase (Homo sapiens) (UniProt P31749); conditions: KINOMEscan 353-kinase binding panel, qPCR; AKT1; at 10 µM; hits give low values
CDC2L2 = conditions: KINOMEscan 353-kinase binding panel, qPCR, at 10 µM, hits give low values
ZAP70 = conditions: KINOMEscan 353-kinase binding panel, qPCR, at 10 µM, hits give low values
[16] = biological target: Mitogen-activated protein kinase kinase kinase 10 (Homo sapiens) (UniProt Q02779); conditions: KINOMEscan 353-kinase binding panel, qPCR; MLK2; at 10 µM; hits give low values
[17] = biological target: Maternal embryonic leucine zipper kinase (Homo sapiens) (UniProt Q14680); conditions: KINOMEscan 353-kinase binding panel, qPCR; MELK; at 10 µM; hits give low values

Epidermal growth factor receptor (Homo sapiens), sequence (P00533 whole entry, looked up): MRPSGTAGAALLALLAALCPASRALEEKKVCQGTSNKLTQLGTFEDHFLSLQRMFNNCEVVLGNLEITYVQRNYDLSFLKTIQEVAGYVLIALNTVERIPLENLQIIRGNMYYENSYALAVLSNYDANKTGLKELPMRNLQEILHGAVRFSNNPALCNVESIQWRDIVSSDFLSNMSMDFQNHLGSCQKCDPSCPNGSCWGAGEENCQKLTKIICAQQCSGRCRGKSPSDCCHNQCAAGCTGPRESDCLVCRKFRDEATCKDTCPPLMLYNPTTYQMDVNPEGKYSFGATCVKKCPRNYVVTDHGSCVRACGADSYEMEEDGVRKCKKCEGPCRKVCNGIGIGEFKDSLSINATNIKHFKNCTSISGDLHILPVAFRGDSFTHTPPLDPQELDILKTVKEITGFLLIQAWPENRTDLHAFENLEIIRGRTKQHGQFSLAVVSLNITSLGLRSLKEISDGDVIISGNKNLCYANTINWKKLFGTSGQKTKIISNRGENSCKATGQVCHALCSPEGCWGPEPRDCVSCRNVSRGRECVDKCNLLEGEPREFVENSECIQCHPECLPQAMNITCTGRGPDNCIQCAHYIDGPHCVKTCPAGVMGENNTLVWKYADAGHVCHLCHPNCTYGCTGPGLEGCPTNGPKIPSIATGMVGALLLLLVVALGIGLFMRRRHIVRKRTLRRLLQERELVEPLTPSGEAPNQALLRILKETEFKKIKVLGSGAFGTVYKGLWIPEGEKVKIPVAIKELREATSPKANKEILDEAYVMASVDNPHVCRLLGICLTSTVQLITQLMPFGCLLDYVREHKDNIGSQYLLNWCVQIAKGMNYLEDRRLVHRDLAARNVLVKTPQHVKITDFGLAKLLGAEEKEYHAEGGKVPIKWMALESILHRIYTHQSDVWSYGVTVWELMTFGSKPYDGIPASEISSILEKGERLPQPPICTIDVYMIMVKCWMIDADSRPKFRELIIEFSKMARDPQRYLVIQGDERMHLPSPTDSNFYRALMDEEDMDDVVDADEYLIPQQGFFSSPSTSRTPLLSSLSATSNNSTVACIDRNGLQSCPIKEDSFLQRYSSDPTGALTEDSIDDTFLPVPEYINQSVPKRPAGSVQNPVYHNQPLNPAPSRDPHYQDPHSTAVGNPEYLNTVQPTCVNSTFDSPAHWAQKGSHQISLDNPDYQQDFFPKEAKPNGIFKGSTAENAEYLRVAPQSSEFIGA
Serine/threonine-protein kinase B-raf (Homo sapiens), sequence (P15056 whole entry, looked up): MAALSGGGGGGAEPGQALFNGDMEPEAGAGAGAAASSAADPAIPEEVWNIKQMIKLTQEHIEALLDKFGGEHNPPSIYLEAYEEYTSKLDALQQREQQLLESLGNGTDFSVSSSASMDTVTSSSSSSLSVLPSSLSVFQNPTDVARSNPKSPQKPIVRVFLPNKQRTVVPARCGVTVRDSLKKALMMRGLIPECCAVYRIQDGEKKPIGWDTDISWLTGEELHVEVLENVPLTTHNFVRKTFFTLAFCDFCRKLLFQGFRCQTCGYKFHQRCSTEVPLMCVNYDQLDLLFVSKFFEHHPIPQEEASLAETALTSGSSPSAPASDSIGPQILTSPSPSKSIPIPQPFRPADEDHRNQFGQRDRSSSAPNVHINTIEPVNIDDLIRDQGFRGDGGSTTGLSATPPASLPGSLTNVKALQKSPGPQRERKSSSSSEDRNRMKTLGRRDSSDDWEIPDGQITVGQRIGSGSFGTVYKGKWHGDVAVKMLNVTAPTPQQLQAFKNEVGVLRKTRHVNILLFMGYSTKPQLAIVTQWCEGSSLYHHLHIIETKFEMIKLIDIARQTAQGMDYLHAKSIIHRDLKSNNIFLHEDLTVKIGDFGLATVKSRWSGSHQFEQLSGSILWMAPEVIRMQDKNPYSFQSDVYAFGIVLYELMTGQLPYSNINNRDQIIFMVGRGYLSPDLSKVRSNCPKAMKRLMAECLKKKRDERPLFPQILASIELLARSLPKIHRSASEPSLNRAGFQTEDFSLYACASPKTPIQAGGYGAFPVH
Tyrosine-protein kinase JAK2 (Homo sapiens), sequence (O60674 whole entry, looked up): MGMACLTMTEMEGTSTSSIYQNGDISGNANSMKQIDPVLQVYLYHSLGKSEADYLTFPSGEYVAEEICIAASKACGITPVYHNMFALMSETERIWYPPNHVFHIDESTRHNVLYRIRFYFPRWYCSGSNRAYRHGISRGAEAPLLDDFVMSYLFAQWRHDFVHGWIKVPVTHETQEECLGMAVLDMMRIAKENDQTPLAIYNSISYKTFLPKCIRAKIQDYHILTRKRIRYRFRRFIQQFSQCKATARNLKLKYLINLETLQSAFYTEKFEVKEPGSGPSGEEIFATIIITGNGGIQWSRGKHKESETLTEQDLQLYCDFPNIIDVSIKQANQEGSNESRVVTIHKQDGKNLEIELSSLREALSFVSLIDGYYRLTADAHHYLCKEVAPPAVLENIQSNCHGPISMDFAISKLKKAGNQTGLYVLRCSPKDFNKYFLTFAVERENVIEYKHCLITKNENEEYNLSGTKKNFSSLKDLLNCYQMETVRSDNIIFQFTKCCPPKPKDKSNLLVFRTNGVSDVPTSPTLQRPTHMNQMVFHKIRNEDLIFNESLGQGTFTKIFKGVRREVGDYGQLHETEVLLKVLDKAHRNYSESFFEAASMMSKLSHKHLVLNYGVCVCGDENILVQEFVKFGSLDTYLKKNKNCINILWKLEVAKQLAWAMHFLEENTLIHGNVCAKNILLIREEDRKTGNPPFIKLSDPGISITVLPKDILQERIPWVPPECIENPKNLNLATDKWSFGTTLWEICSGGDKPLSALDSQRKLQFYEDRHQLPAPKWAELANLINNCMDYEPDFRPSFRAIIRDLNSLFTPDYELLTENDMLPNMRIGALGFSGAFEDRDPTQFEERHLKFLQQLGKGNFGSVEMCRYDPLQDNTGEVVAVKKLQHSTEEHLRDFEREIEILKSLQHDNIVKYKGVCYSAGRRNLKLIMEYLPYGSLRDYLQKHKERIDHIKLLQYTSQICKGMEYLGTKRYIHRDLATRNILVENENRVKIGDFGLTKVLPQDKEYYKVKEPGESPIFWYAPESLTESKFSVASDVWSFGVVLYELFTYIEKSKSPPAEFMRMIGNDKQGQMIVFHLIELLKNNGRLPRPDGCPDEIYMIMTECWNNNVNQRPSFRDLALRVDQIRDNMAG
Cyclin-dependent kinase 5 (Homo sapiens), sequence (Q00535 whole entry, looked up): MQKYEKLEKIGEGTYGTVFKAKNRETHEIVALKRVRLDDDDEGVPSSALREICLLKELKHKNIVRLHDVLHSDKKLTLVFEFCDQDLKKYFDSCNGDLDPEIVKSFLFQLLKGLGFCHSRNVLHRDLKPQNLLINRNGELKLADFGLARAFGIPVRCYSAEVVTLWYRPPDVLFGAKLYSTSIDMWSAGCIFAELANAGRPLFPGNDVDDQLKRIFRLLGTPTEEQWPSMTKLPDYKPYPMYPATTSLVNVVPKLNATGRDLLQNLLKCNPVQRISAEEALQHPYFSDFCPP
Serine/threonine-protein kinase DCLK1 (Homo sapiens), sequence (O15075 whole entry, looked up): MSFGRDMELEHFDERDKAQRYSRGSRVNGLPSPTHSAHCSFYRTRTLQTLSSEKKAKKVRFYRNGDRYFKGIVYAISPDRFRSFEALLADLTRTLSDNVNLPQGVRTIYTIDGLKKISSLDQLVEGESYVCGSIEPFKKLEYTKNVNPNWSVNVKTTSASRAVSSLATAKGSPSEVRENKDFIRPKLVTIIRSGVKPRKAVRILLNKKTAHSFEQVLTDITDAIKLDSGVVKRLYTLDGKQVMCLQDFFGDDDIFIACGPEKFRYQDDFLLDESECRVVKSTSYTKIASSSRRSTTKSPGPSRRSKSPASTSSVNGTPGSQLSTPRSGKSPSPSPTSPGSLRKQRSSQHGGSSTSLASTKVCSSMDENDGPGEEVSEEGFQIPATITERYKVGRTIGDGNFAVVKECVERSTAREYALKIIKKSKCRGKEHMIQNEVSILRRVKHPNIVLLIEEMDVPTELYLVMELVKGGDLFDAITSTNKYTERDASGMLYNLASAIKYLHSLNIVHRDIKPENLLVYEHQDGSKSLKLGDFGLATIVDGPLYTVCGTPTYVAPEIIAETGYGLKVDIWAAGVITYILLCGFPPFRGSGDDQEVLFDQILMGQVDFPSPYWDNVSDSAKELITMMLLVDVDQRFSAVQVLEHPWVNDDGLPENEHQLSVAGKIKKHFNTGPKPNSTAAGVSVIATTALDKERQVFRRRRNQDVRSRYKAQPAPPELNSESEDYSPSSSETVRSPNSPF
Serine/threonine-protein kinase PAK 6 (Homo sapiens), sequence (Q9NQU5 whole entry, looked up): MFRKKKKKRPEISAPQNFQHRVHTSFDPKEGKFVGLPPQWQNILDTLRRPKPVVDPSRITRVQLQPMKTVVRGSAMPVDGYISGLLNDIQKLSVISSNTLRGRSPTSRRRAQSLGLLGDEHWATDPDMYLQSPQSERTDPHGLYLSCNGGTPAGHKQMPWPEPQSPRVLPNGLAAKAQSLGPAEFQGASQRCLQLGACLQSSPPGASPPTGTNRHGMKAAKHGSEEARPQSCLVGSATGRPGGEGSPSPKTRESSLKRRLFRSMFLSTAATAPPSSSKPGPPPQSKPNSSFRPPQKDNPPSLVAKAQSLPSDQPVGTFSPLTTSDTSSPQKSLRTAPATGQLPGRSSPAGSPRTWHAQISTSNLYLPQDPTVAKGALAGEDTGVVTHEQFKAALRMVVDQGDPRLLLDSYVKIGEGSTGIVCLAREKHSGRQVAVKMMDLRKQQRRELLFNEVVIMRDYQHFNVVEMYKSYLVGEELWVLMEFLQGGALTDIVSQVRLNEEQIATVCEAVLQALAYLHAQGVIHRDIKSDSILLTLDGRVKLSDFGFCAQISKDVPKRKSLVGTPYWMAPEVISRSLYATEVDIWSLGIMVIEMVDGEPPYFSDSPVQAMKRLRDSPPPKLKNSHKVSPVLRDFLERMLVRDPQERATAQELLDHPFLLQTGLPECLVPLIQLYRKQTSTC

percent of control binding [1]: 76% (inactive)
percent of control binding ([2]; EGFR(E746-A750del)): 100% (inactive)
percent of control binding ([2]; EGFR(G719C)): 89% (inactive)
percent of control binding ([2]; EGFR(G719S)): 100% (inactive)
percent of control binding ([2]; EGFR(L747-E749del, A750P)): 87% (inactive)
percent of control binding ([2]; EGFR(L747-S752del, P753S)): 100% (inactive)
percent of control binding ([2]; EGFR(L747-T751del,Sins)): 97% (inactive)
percent of control binding ([2]; EGFR(L858R)): 77% (inactive)
percent of control binding ([2]; EGFR(L861Q)): 59% (inactive)
percent of control binding ([2]; EGFR(S752-I759del)): 100% (inactive)
percent of control binding ([2]; EGFR): 86% (inactive)
percent of control binding [3]: 100% (inactive)
percent of control binding [4]: 100% (inactive)
percent of control binding (LATS1): 94% (inactive)
percent of control binding [5]: 100% (inactive)
percent of control binding [6]: 47% (inactive)
percent of control binding (DCAMKL2): 89% (inactive)
percent of control binding [7]: 100% (inactive)
percent of control binding (RPS6KA1(Kin.Dom.2)): 93% (inactive)
percent of control binding (NEK7): 97% (inactive)
percent of control binding ([8]; BRAF(V600E)): 70% (inactive)
percent of control binding ([8]; BRAF): 88% (inactive)
percent of control binding [9]: 86% (inactive)
percent of control binding [10]: 100% (inactive)
percent of control binding (MST3): 100% (inactive)
percent of control binding [11]: 94% (inactive)
percent of control binding [12]: 91% (inactive)
percent of control binding (TGFBR2): 100% (inactive)
percent of control binding (RPS6KA2(Kin.Dom.1)): 90% (inactive)
percent of control binding [13]: 89% (inactive)
percent of control binding (ULK3): 100% (inactive)
percent of control binding (PFTAIRE2): 53% (inactive)
percent of control binding (MLK1): 100% (inactive)
percent of control binding [14]: 76% (inactive)
percent of control binding (ERK4): 100% (inactive)
percent of control binding [15]: 100% (inactive)
percent of control binding (CDC2L2): 100% (inactive)
percent of control binding (ZAP70): 70% (inactive)
percent of control binding [16]: 100% (inactive)
percent of control binding [17]: 93% (inactive)
SMILES: Cc1cc2nc(NCCCO)n(CC(=O)c3cc(C(C)(C)C)c(O)c(C(C)(C)C)c3)c2cc1C
